Where “and” joins values, the source holds several entries; their conditions need not be identical. Equal entries are not always repeated.
Columns and labels:
IgF-BP3/IgF-1 = assay: Ratio IgF-BP3/IgF-1 in type 2 diabetic patients during medication with IAA (Example 4); format: in vivo, human; settings: for Ratio IgF-BP3/IgF-1: acetic acid
Excerpt: Five male type 2 diabetic patients took part in the study. They were all very difficult to regulate. When the study started, the average HbA1c was to be approximately 9.0%. The patients had no other clinical problems. In addition, the IgF-BP3/IgF-1 ratio had to be over 10. The age of the subjects were between 45 years and 75 years with an average of 58. The period of the investigation was 6 months. […] The following parameters were checked: IGF-1 and IGF-PB-3. Also, at the start, safety parameters (liver tests, hematology) were determined. Every 8 weeks, HbA1c was determined.
All samples from one subject were analyzed in the same run to avoid intra-assay variability. Quantification of IGF-1 was performed using an immunoradiometric assay (IRMA) (DSL-5600 ACTIVE™, DSL, Germany GmbH, Germany). Intra- and inter-assay variance was: 4.0% and 9.2% and 1.5% for IGF-1. The Hba1c was analyzed on HPLC Menarine HA 81-60.
The total work output of every subject was calculated with a 2-way ANOVA for repeated measures and the hormone values were analyzed with the Wilcoxon test. In all cases, a p value of <0.05 was accepted as significant.

IGF-1 [1] = assay: IgF-1 level in athletes with intensive training taking IAA or placebo (Example 6); format: in vivo, human; settings: group A
Description: (§1) Twenty athletes entered the study. Other medication was excluded from the research. The period of the treatment was 12 weeks. They were not allowed to take any other medication or food supplements. They continued their level of training. After 2 weeks, the training was intensified by 25%. At baseline, at the start, after 2 weeks, 4 weeks, 6 weeks, 8 weeks, 10 weeks and 12 weeks, IGF-1 and safety parameters (liver tests, hematology) were determined. The group was divided into two groups of ten athletes. Group A received IAA; group B got a placebo.
All samples from one subject were analyzed in the same run to avoid intra-assay variability. GH was assayed with a chemiluminescence kit (Nichols Institute Diagnostics, San Juan Capistrano, Calif., USA). Quantification of IGF-1 was performed using an immunoradiometric assay (IRMA) (DSL-5600 ACTIVE, DSL, Germany GmbH, Germany). Intra- and inter-assay variance was: 4.0% and 9.2% for GH; 3.0% and 1.5% for IGF-1.
The total work output of every subject was calculated with a two-way ANOVA for repeated measures and the hormone values were analyzed with the Wilcoxon test. In all cases, 1 p value of <0.05 was accepted as significant.
(§2) The following schedule was used for the supplements. 1 IAA capsule contained 10 mg IAA, 100 mg NaCl, 140 mg WPC 70. One Glutamine capsule contained 500 mg glutamine. The amino acids that were taken are as described in Table 1.

IGF-1 [2] = assay: IGF-1 levels in poor-growing piglets treated with IAA (Example 7); format: in vivo, piglets (Dutch Landrace)
Excerpt: The trial was done in a well-managed farm with 1000 sows of the Dutch Landrace. Although the farm is well run, the technical performance is not optimal. There were latent problems with mortality and with growth rates of the piglets. There are too many poor-growing piglets, without fully understanding the technical or veterinary reason. There is no clear pathology to be seen on the farm.
The farmer selected the poor-growing piglets for this weaning period. The piglets were weaned for two days at the start of the trial. There were three groups: the normal well-growing piglets, which served as a control group; the B group with 78 poor growers that are treated with 12.5 mg/kg/LW (Life Weight) IAA; and the X group with 52 poor growers that are not treated.
Blood samples for IGF-1 measuring were taken from each group at the beginning of the trial and at the end of the trial. Two pens (13 piglets) of the B and X groups were weighed at the beginning and at the end of the trial. The active ingredient IAA was mixed in dextrose. […] The B group received the treatment five days after the first IGF-1 measuring.

athletes = assay: Performance and recovery of athletes (Example 6); format: in vivo, human; settings: group that received IAA; 12 weeks intensive training; placebo performances decreased
Description: as §1, §2

indole acetic acid [IAA]
Ratio IgF-BP3/IgF-1, average (IgF-BP3/IgF-1; Month 0 (start), average of 5 subjects): 10.6
Ratio IgF-BP3/IgF-1 (IgF-BP3/IgF-1; Month 0 (start), individual subjects): 10.2 and 10.6 and 10.8 and 11.3 and 10.0
Ratio IgF-BP3/IgF-1, average (IgF-BP3/IgF-1; Month 1, average of 5 subjects): 9.9
Ratio IgF-BP3/IgF-1 (IgF-BP3/IgF-1; Month 1, individual subjects): 9.7 and 10.1 and 9.9 and 10.8 and 8.9
Ratio IgF-BP3/IgF-1, average (IgF-BP3/IgF-1; Month 2, average of 5 subjects): 8.9
Ratio IgF-BP3/IgF-1 (IgF-BP3/IgF-1; Month 2, individual subjects): 9.0 and 8.6 and 9.4 and 9.2 and 8.5
Ratio IgF-BP3/IgF-1, average (IgF-BP3/IgF-1; Month 3, average of 5 subjects): 8.5
Ratio IgF-BP3/IgF-1 (IgF-BP3/IgF-1; Month 3, individual subjects): 8.6 and 8.3 and 8.9 and 8.8 and 8.1
Ratio IgF-BP3/IgF-1, average (IgF-BP3/IgF-1; Month 4, average of 5 subjects): 7.9
Ratio IgF-BP3/IgF-1 (IgF-BP3/IgF-1; Month 4, individual subjects): 8.0 and 7.6 (2×) and 8.3 and 7.8
Ratio IgF-BP3/IgF-1, average (IgF-BP3/IgF-1; Month 5, average of 5 subjects): 7.2
Ratio IgF-BP3/IgF-1 (IgF-BP3/IgF-1; Month 5, individual subjects): 7.2 (2×) and 6.8 and 7.6 and 7.3
Ratio IgF-BP3/IgF-1, average (IgF-BP3/IgF-1; Month 6, average of 5 subjects): 6.8
Ratio IgF-BP3/IgF-1 (IgF-BP3/IgF-1; Month 6, individual subjects): 6.6 and 6.3 and 7.2 and 6.9 (2×)
increase of IgF-1 level (IGF-1 [1]; over a period of 8 weeks (so in the source), statistically significant): ca. 47.7%
IgF-1 level, average test group (IGF-1 [1]; time point 0 (start), blood taken every 2 weeks over 12 weeks): 27.9 nmol/L
IgF-1 level, average test group (IGF-1 [1]; time point 1): 35.8 nmol/L
IgF-1 level, average test group (IGF-1 [1]; time point 2): 38.9 nmol/L
IgF-1 level, average test group (IGF-1 [1]; time point 3): 42.5 nmol/L
IgF-1 level, average test group (IGF-1 [1]; time point 4): 41.7 nmol/L
IgF-1 level, average test group (IGF-1 [1]; time point 5): 41.4 nmol/L
IgF-1 level, average test group (IGF-1 [1]; time point 6 (end of the study)): 41.2 nmol/L
IGF-1 level, 2nd measurement (IGF-1 [2]; treated group B, individual piglets, after 21 days of 12.5 mg/kg/LW IAA in feed, acetic acid, 12.5 mg/kg): 25.2 nmol/L and 28.9 nmol/L and 25.5 nmol/L and 29.9 nmol/L and 16.9 nmol/L
IGF-1 level, 1st measurement (IGF-1 [2]; treated group B, individual piglets, beginning of the trial, before treatment, acetic acid): 3 nmol/L and 2.7 nmol/L and 6.1 nmol/L and 5.3 nmol/L and 5.7 nmol/L
IGF-1 level, 2nd measurement, average (IGF-1 [2]; treated group B, average of 5 piglets, after 21 days of treatment, control 23.6, non-treated X 17.2, acetic acid): 25.3 nmol/L and 25.28 nmol/L
IGF-1 level, 1st measurement, average (IGF-1 [2]; treated group B, average of 5 piglets, before treatment): 4.56 nmol/L
effect on IGF-1 levels in poor-growing piglets (IGF-1 [2]; treatment for 14-21 days with 12.5 mg/kg/LW IAA): effectively restores IGF-1 levels
performance of athletes at the end (athletes): performed better
